Values of other authors as cited in patent publication US20190216952A1, “Method for substantiating validating products for environmental safety” (priority 2018, published 2019).

Tests used:
coral [1] = conditions: Danovaro et al 2008
coral [2] = conditions: Downs et al

SMILES	coral bleaching/death (coral [1])	toxicity in coral (coral [2])
Cc1ccc(C=C2C(=O)C3(C)CCC2C3(C)C)cc1 (centres unmarked) [4-Methylbenzylidene Camphor]	caused coral bleaching/death	–
CCCCOC(=O)c1ccc(O)cc1 [Butylparaben]	caused coral bleaching/death	–
CCCCC(CC)COC(=O)C=Cc1ccc(OC)cc1 (centres unmarked) [Octinoxate]	caused coral bleaching/death	–
COc1ccc(C(=O)c2ccccc2)c(O)c1 [Oxybenzone]	caused coral bleaching/death	toxicity
